Data taken from ChEMBL document CHEMBL1132543, “N-deacetyl-N-aminoacylthiocolchicine derivatives: synthesis and biological evaluation on MDR-positive and MDR-negative human cancer cell lines” (J Med Chem, 1999).

Experiments:
MCF7 = test: Anti tumor activity on human breast cancer cell line MDR-positive MCF-7 ADRr after 72 hours of treatment; format: functional, cell-based; settings: MCF7, 72 h
MDA-MB-231 = test: cells; format: functional, cell-based; settings: Homo sapiens, MDA-MB-231, 72 h
Description: Anti tumor activity on human breast cancer cell line MDR-negative MDA-MB 231 after 72 hours of treatment

| SMILES | IC50 (MCF7) [µM] | IC50 (MDA-MB-231) [µM] |
| --- | --- | --- |
| COc1cc2c(c(OC)c1OC)-c1ccc(SC)c(=O)cc1[C@@H](NC(=O)CNC(=O)C(F)(F)F)CC2 | 12 | 0.006 |
| COc1cc2c(c(OC)c1OC)-c1ccc(SC)c(=O)cc1[C@@H](NC(=O)[C@@H](N)c1ccccc1)CC2.COc1cc2c(c(OC)c1OC)-c1ccc(SC)c(=O)cc1[C@@H](NC(=O)[C@H](N)c1ccccc1)CC2 | 1.7 | 0.003 |
| COc1cc2c(c(OC)c1OC)-c1ccc(SC)c(=O)cc1[C@@H](NC(=O)[C@@H](NC(=O)C(F)(F)F)c1ccccc1)CC2.COc1cc2c(c(OC)c1OC)-c1ccc(SC)c(=O)cc1[C@@H](NC(=O)[C@H](NC(=O)C(F)(F)F)c1ccccc1)CC2 | 1.5 | 0.024 |
| COc1cc2c(c(OC)c1OC)-c1ccc(SC)c(=O)cc1[C@@H](NC(=O)[C@@H](CCSC)NC(=O)C(F)(F)F)CC2.COc1cc2c(c(OC)c1OC)-c1ccc(SC)c(=O)cc1[C@@H](NC(=O)[C@H](CCSC)NC(=O)C(F)(F)F)CC2 | 10 | 0.037 |
| COc1cc2c(c(OC)c1OC)-c1ccc(SC)c(=O)cc1[C@@H](NC(=O)[C@@H](C)NC(=O)C(F)(F)F)CC2.COc1cc2c(c(OC)c1OC)-c1ccc(SC)c(=O)cc1[C@@H](NC(=O)[C@H](C)NC(=O)C(F)(F)F)CC2 | 2.1 | 0.012 |
| COc1cc2c(c(OC)c1OC)-c1ccc(SC)c(=O)cc1[C@@H](NC(=O)C(F)(F)F)CC2 | 0.035 | 0.0013 |
| COc1cc2c(c(OC)c1OC)-c1ccc(OC)c(=O)cc1[C@@H](NC(C)=O)CC2 [COLCHICINE] |  | 0.0018 |

The remaining lines, values ahead:

| IC50 (MCF7) [µM] | IC50 (MDA-MB-231) [µM] | SMILES |
| --- | --- | --- |
| 10 | 0.09 | COc1cc2c(c(OC)c1OC)-c1ccc(SC)c(=O)cc1[C@@H](NC(=O)[C@H](C)N)CC2 |
| 10 | 0.0076 | COc1cc2c(c(OC)c1OC)-c1ccc(SC)c(=O)cc1[C@@H](NC(=O)CN)CC2 |
| 12 | 0.15 | COc1cc2c(c(OC)c1OC)-c1ccc(SC)c(=O)cc1[C@@H](NC(=O)[C@@H](C)N)CC2 |
| 0.8 | 0.019 | COc1cc2c(c(OC)c1OC)-c1ccc(SC)c(=O)cc1[C@@H](NC(=O)[C@@H](C)N)CC2.COc1cc2c(c(OC)c1OC)-c1ccc(SC)c(=O)cc1[C@@H](NC(=O)[C@H](C)N)CC2 |
| 20 | 0.035 | COc1cc2c(c(OC)c1OC)-c1ccc(SC)c(=O)cc1[C@@H](NC(=O)[C@@H](N)CCSC)CC2.COc1cc2c(c(OC)c1OC)-c1ccc(SC)c(=O)cc1[C@@H](NC(=O)[C@H](N)CCSC)CC2 |
